Laboratory results from patent US20220249616A1, “Osteocrin, Lebetin or ANP for Destroying Bacterial Biofilms” (priority 2019, published 2022).
Read-outs that look alike come from different tables or passages of the source.

Tests used:
[1] = system: preformed biofilm of P. aeruginosa PA14; assay: microbe, parasite or virus in culture; settings: for % Inhibition (30 min) / Biovolume (30 min): 30 min exposure; for Biovolume (30 min): non-treated 22.19
Experimental: (§1) Briefly, from an 18 h pre-culture, a bacterial suspension at OD600=0.08 prepared in sterile physiological saline solution was injected into each channel of the flow chamber. The bacteria were left for 2 h at 37° C. under static conditions (no flow) so that they adhered to the glass slide. Study of biofilm formation was then conducted under a flow of LB medium (2.5 ml/h) for 24 h at 37° C.
[…] Treatment of the preformed biofilm was conducted for 2 h at 37° C. under static conditions.
(§2) Treatment of the preformed biofilm was conducted for 2 h at 37° C. under static conditions.
To test the membrane integrity of the bacteria, a mixture of 5 μM SYTO 9 Green and 0.3 μM propidium iodide (PI) was used (Live/Dead BacLight Bacterial Viability Kit, Invitrogen).
as §2, §2, §2, §2
Treatment of the biofilm was conducted for 2 h at 37° C. under static conditions. […] Next, 300 μl of tobramycin (50 μg/ml) or 300 μl of milliQ sterile water (control conditions) were injected into the two channels of the flow chamber pre-exposed to ANP. The second treatment of the preformed biofilm was again conducted for 2 h at 37° C. under static conditions.

[2] = molecular target: AmiC sensor of P. aeruginosa (Pseudomonas aeruginosa, UniProt P27017); settings: Rosay et al. (2015); cited from earlier work
[3] = system: P. aeruginosa; settings: observed previously; by activating bacterial quorum-sensing systems; cited from earlier work
[4] = system: P. aeruginosa biofilm; settings: Desriac et al. 2017, 2018; Rosay et al. 2015; cited from earlier work
[5] = system: A549 human pulmonary epithelial cells infected with P. aeruginosa PA14; assay: LDH release by A549 cells infected with P. aeruginosa PA14 pre-treated with ANP (bacterial cytotoxicity); type: cell-based; settings: for % LDH (dead cells): 6 h, MOI 10, PA14 non-treated 56.4 ± 5.5
Experimental: The line of human pulmonary epithelial cells of type II A549 (ATCC-CCL185TM, ATCC Manassas, Va.) was placed in culture at 37° C. under 5% CO2 atmosphere in DMEM medium (Lonza) supplemented with 10% foetal calf serum (Lonza) and 1% penicillin and streptomycin (Penistrep, Lonza). Under routine cell culture, the cells were seeded in a 25 ml flask and used at 80% confluence.
For cytotoxicity tests, the cells were seeded in 24-well plates to a final density of 3×10^5 cells per well and cultured 48 h before use. For a minimum time of 24 h before the infection tests, the cells were deprived of antibiotics and foetal calf serum through the addition of a medium without fresh serum.
The amount of LDH released by the eukaryote cells in the presence of bacteria, whether or not exposed to ANP (concentration of 1 μM at 10 nM), was determined using the Cytotox 96 enzymatic test (Promega, Charbonnières, France). The A549 cells were incubated for 6 h on a control (without treatment) or with P. aeruginosa PA14 (pre-treated with ANP) with a multiplicity of infection of 10. A lysis buffer consisting of Triton X-100 solution (9% in water), was employed to determine the maximum LDH potentially released by the A549 cells under the experimental conditions (100% LDH release). A level of background noise was determined using the culture medium alone and defined as 0% LDH release, to exclude contribution by the culture medium. Percentage LDH release in the cell population was then calculated with the equation: […]

[6] = system: P. aeruginosa P14; assay: Growth of P. aeruginosa in liquid medium in the presence of ANP; type: cell-based, Pseudomonas aeruginosa; settings: ANP at 1 μM and 0.1 μM
Experimental: The bacterial strains were cultured at 37° C. in Luria Bertani medium (LB) under agitation.
To determine a potential direct effect of ANP on the growth of P. aeruginosa, the inventors studied the impact of ANP at 1 μM and 0.1 μM on the growth of P. aeruginosa P14 in a liquid medium.

[7] = system: P. aeruginosa biofilm in formation; assay: Formation of the P. aeruginosa biofilm under dynamic conditions; type: cell-based, Pseudomonas aeruginosa; settings: ANP 0.1 μM
Experimental: After 3 h pre-culture in LB medium at 37° C., P. aeruginosa was inoculated at OD600=0.08 in LB medium and sub-cultured for 2 h.
The ANP (Calbiochem Merck) was added 2 h after the start of culture, a time corresponding to the middle of the exponential growth phase of the bacteria. Final bacterial density and absence of contamination were controlled by seeding.
as §1, with “The biofilms were formed under dynamic conditions at 37° C. in a 3-channel flow chamber as described in Bazire et al. (2010) J. Bacteriol. 192:3001-3010. Briefly,” for “Briefly,”

[8] = Pseudomonas aeruginosa, PA14, 2 h

AmiC sensor of P. aeruginosa, sequence (P27017 whole entry): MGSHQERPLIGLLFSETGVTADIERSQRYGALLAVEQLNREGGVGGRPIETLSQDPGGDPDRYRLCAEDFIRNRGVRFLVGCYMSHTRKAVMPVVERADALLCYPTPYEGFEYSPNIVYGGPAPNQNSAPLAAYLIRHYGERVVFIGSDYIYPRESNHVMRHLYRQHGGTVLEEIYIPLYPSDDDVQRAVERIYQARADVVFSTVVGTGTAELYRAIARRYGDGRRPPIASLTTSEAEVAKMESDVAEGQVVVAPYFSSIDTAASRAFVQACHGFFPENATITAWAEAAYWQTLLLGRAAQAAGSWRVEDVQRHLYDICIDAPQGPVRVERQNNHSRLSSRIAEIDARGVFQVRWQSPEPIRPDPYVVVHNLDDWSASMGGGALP

lebetin 1β [Lebetin L1 beta]
dispersion of established biofilm (observation) ([1]; 10^−8 M, 2 h exposure): strongly dispersed
% Inhibition (2 h) ([1]; Lebetin L1 beta 10^−8 M, 2 h exposure): 67.0%
Biovolume (2 h) ([1]; Lebetin L1 beta 10^−8 M, 2 h exposure, non-treated 21.0): 6.9 μm^3/μm^2

O=C(O)c1cn(C2CC2)c2cc(N3CCNCC3)c(F)cc2c1=O [Ciprofloxacin, ciprofloxacin, reference compound]
inhibition at 0.01 µg/mL [1, 8]: 90%
inhibition at 0.04 µg/mL [1, 8]: 99.3%

lebetin 2α (GDNKPPKKGPPNGCFGHKIDRIGSHSGLGCNKVDDNKG) [Lebetin L2 alpha]
binding onto the AmiC sensor of P. aeruginosa [2]: strong affinity
dispersion of established biofilm (observation) ([1]; 10^−8 M, 2 h exposure): strongly and significantly dispersed
% Inhibition (2 h) ([1]; Lebetin L2 alpha 10^−8 M, 2 h exposure): 70.2 (***) %
Biovolume (2 h) ([1]; Lebetin L2 alpha 10^−8 M, 2 h exposure, non-treated 29.7): 8.9 μm^3/μm^2

C[C@@H](O)[C@H]1C(=O)N2C(C(=O)O)=C(SCCN=CN)C[C@H]12 [Imipenem, imipenem, reference compound]
Biovolume [1]: 7.0 μm^3/μm^2
inhibition at 0.5 µg/mL [1, 8]: 75%

C-type Natriuretic Peptide [CNP]
bacterial virulence and cytotoxicity [3]: slightly increased
formation of P. aeruginosa biofilm [4]: prevent the formation

Brain Natriuretic Peptide [BNP]
formation of P. aeruginosa biofilm [4]: prevent the formation

NC[C@H]1O[C@H](O[C@H]2[C@H](O)[C@@H](O[C@H]3O[C@H](CO)[C@@H](O)[C@H](N)[C@H]3O)[C@H](N)C[C@@H]2N)[C@H](N)C[C@@H]1O [Tobramycin, tobramycin, reference compound]
inhibition at 10 µg/mL [1, 8]: 78.5%
inhibition at 50 µg/mL [1, 8]: 75.9%
Biovolume ([1]; Tobramycin 10 μg/ml alone, 2 h, non-treated 13.5): 2.9 μm^3/μm^2
Biovolume ([1]; Tobramycin 50 μg/ml alone, 2 h, non-treated 13.5): 3.26 μm^3/μm^2

osteocrin
binding onto the AmiC sensor of P. aeruginosa [2]: strong affinity
dispersion of established biofilm (observation) ([1]; 10^−8 M, 2 h exposure): strongly and significantly dispersed
% Inhibition (2 h) ([1]; Osteocrin 10^−8 M, 2 h exposure): 59.4 (***) %
Biovolume (2 h) ([1]; Osteocrin 10^−8 M, 2 h exposure, non-treated 29.8): 12.1 μm^3/μm^2

colistin [reference compound]
% Inhibition ([1]; Colistin 1 μg/ml alone, 2 h): 88.6%
Biovolume ([1]; Colistin 1 μg/ml alone, 2 h, non-treated 18.5): 2.1 μm^3/μm^2

polymyxin B [reference compound]
% Inhibition ([1]; Polymyxin B 4 μg/ml alone, 2 h): 59.3%
Biovolume ([1]; Polymyxin B 4 μg/ml alone, 2 h, non-treated 18.2): 7.4 μm^3/μm^2

CC[C@H](C)[C@@H]1NC(=O)[C@H](CCCNC(=N)N)NC(=O)[C@H](CC(=O)O)NC(=O)[C@H](CCSC)NC(=O)[C@H](CCCNC(=N)N)NC(=O)CNC(=O)CNC(=O)[C@H](Cc2ccccc2)NC(=O)[C@@H](NC(=O)[C@H](CO)NC(=O)[C@H](CO)NC(=O)[C@H](CCCNC(=N)N)NC(=O)[C@H](CCCNC(=N)N)NC(=O)[C@H](CC(C)C)NC(=O)[C@@H](N)CO)CSSC[C@@H](C(=O)N[C@@H](CC(N)=O)C(=O)N[C@@H](CO)C(=O)N[C@@H](Cc2ccccc2)C(=O)N[C@@H](CCCNC(=N)N)C(=O)N[C@@H](Cc2ccc(O)cc2)C(=O)O)NC(=O)CNC(=O)[C@H](CC(C)C)NC(=O)CNC(=O)[C@H](CO)NC(=O)[C@H](CCC(N)=O)NC(=O)[C@H](C)NC(=O)CNC1=O [ANP, Atrial Natriuretic Peptide]
impact on the cytotoxic activity of P. aeruginosa in pulmonary cells ([5]; ANP 1 μM to 10 nM): no impact
% LDH (dead cells) ([5]; PA14 + ANP 10^−6 M): 58.9 ± 5.8%
% LDH (dead cells) ([5]; PA14 + ANP 10^−7 M): 53.5 ± 5.3%
% LDH (dead cells) ([5]; PA14 + ANP 10^−8 M): 54.5 ± 5.5%
binding onto the AmiC sensor of P. aeruginosa [2]: strong affinity
% Inhibition (30 min) ([1]; ANP 0.3 ng/ml): 57.5 (*) %
Biovolume (30 min) ([1]; ANP 0.3 ng/ml): 9.5 μm^3/μm^2
% Inhibition (2 h) ([1]; ANP 0.3 ng/ml, 2 h exposure): 45.1 (**) %
Biovolume (2 h) ([1]; ANP 0.3 ng/ml, 2 h exposure, non-treated 21.1 (mean of all controls)): 10.6 μm^3/μm^2
% Inhibition (30 min) ([1]; ANP 3 ng/ml): 59.1 (*) %
Biovolume (30 min) ([1]; ANP 3 ng/ml): 8.8 μm^3/μm^2
% Inhibition (2 h) ([1]; ANP 3 ng/ml, 2 h exposure): 65.9 (***) %
Biovolume (2 h) ([1]; ANP 3 ng/ml, 2 h exposure, non-treated 21.1 (mean of all controls)): 6.3 μm^3/μm^2
% Inhibition (30 min) ([1]; ANP 30 ng/ml): 69.0 (*) %
Biovolume (30 min) ([1]; ANP 30 ng/ml): 6.7 μm^3/μm^2
% Inhibition (2 h) ([1]; ANP 30 ng/ml, 2 h exposure): 72.5 (***) %
Biovolume (2 h) ([1]; ANP 30 ng/ml, 2 h exposure, non-treated 21.1 (mean of all controls)): 4.4 μm^3/μm^2
biofilm structure dispersed ([1]; ANP 0.1 μM for 2 h, even 30 minutes): about 80%
thickness of the biofilm ([1]; ANP 0.1 μM, 2 h exposure): major reduction
bacterial biomass reduced compared with control ([1]; ANP 0.1 μM, 2 hours exposure (P<0.001)): 81.4±4.1%
% Inhibition (30 min) ([1]; ANP 300 ng/ml (0.1 μM)): 80.2 (*) %
Biovolume (30 min) ([1]; ANP 300 ng/ml (0.1 μM)): 4.4 μm^3/μm^2
% Inhibition (2 h) ([1]; ANP 300 ng/ml (0.1 μM), 2 h exposure): 81.4 (***) %
Biovolume (2 h) ([1]; ANP 300 ng/ml (0.1 μM), 2 h exposure, non-treated 21.1 (mean of all controls)): 4.9 μm^3/μm^2
% Inhibition ([1]; ANP 10^−8 M alone, 2 h (colistin experiment)): 73.5%
% Inhibition ([1]; ANP 10^−8 M alone, 2 h (imipenem experiment)): 75.4%
% Inhibition ([1]; ANP 10^−8 M alone, 2 h (polymyxin B experiment)): 75.3%
Biovolume ([1]; ANP 10^−8 M alone, 2 h, non-treated 18.2 (polymyxin B experiment)): 4.5 μm^3/μm^2
Biovolume ([1]; ANP 10^−8 M alone, 2 h, non-treated 18.5 (colistin experiment)): 4.9 μm^3/μm^2
Biovolume ([1]; ANP 10^−8 M alone, 2 h, non-treated 28.0 (imipenem experiment)): 6.9 μm^3/μm^2
% Inhibition ([1]; ANP 10^−9 M 2 h, then sterile water 2 h (sequential experiment)): 68.7%
Biovolume ([1]; ANP 10^−9 M 2 h, then sterile water 2 h (sequential experiment), non-treated 13.1): 4.1 μm^3/μm^2
% Inhibition ([1]; ANP 10^−9 M alone, 2 h (table with tobramycin 10 μg/ml)): 66.4%
% Inhibition ([1]; ANP 10^−9 M alone, 2 h (table with tobramycin 50 μg/ml)): 66.4%
Biovolume ([1]; ANP 10^−9 M alone, 2 h, non-treated 13.5 (table with tobramycin 10 μg/ml)): 4.53 μm^3/μm^2
Biovolume ([1]; ANP 10^−9 M alone, 2 h, non-treated 13.5 (table with tobramycin 50 μg/ml)): 4.53 μm^3/μm^2
remaining bacterial biomass reduced compared with control ([1]; ANP (0.1 μM per Example 1), 30 minutes exposure (P<0.05)): 80.2±2.0%
pre-established P. aeruginosa biofilms destroyed ([1]; low dose (on and after 0.1 nM), as soon as 30 min after administration): about 80%
dispersion of established biofilm (observation) ([1]; on and after the lowest concentration of 0.3 ng/ml, as soon as after exposure for 30 min): strongly dispersed
effect on growth of P. aeruginosa [6]: None of the tested ANP concentrations affected bacterial growth
formation of a P. aeruginosa biofilm [7]: fully prevents
formation of P. aeruginosa biofilm [4]: prevent the formation
